2 molecules from patent US9632088B2, “Methods and compositions for gamma-secretase assay” (MEMORIAL SLOAN-KETTERING CANCER CENTER, priority 2010, dated 2017) can be followed below.

Experiment [1] has as its target T1, M146L PS1 γ-secretase (Homo sapiens, UniProt P49768, M146L).
T1 construct: total membrane
Description: In vitro N1-Sb1 γ-secretase assay, membrane of N2a cells expressing M146L PS1. The settings on record: M146L PS1; read-out: IC50 of γ-secretase inhibition (N1-Sb1 cleavage). The experiment is classed as biochemical, murine. On the procedure: (§1) HeLa membrane fraction was isolated from HeLa-S3 cells (National Cell Culture Center). The cell pellet was resuspended in Buffer A (50 mM MES, 150 mM KCl, 5 mM CaCl2, 5 mM MgCl2) and lysed by passage through a French Press. N2a cells (murine neuroblastoma cells) over-expressing wild-type PS1, or mutants M146L or E280A, were obtained from Dr. Sangram Sisodia (University of Chicago, Chicago, Ill.). These cells were maintained in 50% Dulbecco's modified Eagle's medium high glucose, 50% Opti-Mem Reduced Serum Media, and 10% fetal calf serum. Cultured cells were pelleted by centrifugation and resuspended in hypotonic buffer (40 mM Tris, pH 7.4, 10 mM NaCl, 1 mM EDTA, and 0.5 mM DTT) for 20 minutes before being lysed with a dounce homogenizer. Nuclear debris from the HeLa and N2a cells were pelleted at 3000 rpm for 30 minutes. The resulting supernatants were ultracentrifuged at 100,000×g for 1 hour. The pellet that contained total cell membrane was resuspended in Buffer A. Mouse brains overexpressing knock-in wild type or M146V PS1 (gift from Dr. Hui Zheng, Amylin Pharmaceuticals, San Diego, Calif.) were homogenized with dounce homogenizer. The cell lysate was centrifuged at 3000 rpm for 30 minutes. The supernatants were ultracentrifuged at 100,000×g for 1 hour. Protein concentration was determined with the DC Protein Assay Kit according to the manufacturer's instructions (Bio-Rad, Hercules, Calif.).
(§2) An in vitro γ-secretase assay using a novel recombinant APP-derived substrate (termed “Sb4”) is disclosed in co-pending application U.S. Ser. No. 12/776,141. In the present assay based on a Notch-derived substrate, N1-Sb1 was incubated with the cell membrane fraction, prepared as described above, in the presence of 0.25% CHAPSO and 1×PIPES buffer (50 mM PIPES, pH 7.0, 150 mM KCl, 5 mM CaCl2, 5 mM MgCl2. The reaction was incubated at 37° C. for 2 hours. The Perkin Elmer AlphaScreen™ detection system was employed to assay for Notch cleavage. AlphaScreen (PerkinElmer Life and Analytical Sciences, Shelton, Conn.) is a bead based non-radioactive Amplified Luminescent Proximity Homogeneous Assay (ALPHA). When a biological interaction brings the beads together, a cascade of chemical reactions acts to produce a greatly amplified signal. Specifically, upon laser excitation, a photosensitizer in the “Donor” bead converts ambient (triplet) oxygen to the more reactive singlet state. The singlet state oxygen molecules diffuse into the solvent, and may react with a thioxene derivative in the Acceptor bead if nearby, generating chemiluminescence at 370 nm that further activates fluorophores contained in the same bead. The fluorophores subsequently emit light at 520-620 nm. In the absence of a specific biological interaction, the singlet state oxygen molecules produced by the donor bead go undetected without the close proximity of the acceptor bead. As a result no fluorescence signal at 520-620 nm is produced.
(§3) In the present system, antibody SM320, Protein A-conjugated acceptor beads, and Streptavidin-conjugated donor beads (PerkinElmer) were added to the reaction at a final concentration of 0.2 μg/ml, 2.5 μg/ml and 5 μg/ml, respectively (diagrammed in FIG. 5A). The reaction was incubated in the dark at room-temperature for 4 hours. The ALPHA signal was detected using the Envision plate reader (Perkin Elmer). The reactions were excited at 680 nm and signal was detected at 615 nm.
(§4) The effects of PS1 FAD mutations on Notch cleavage were determined using the new γ-secretase assay described in Example 2. The activities of two PS1 FAD mutations—PS1 M146L and E280A were compared against wild-type PS1 (WT), which has been previously studied (25). Total membrane was isolated from N2a cells that stably express WT, M146L, or E280A mutants. N1-Sb1 was incubated with these membranes and the resulting cN1-Sb1 was detected with SM320. […] The M146L and E280A mutants had 40% and 14% activity remaining, respectively, compared to the activity of the wild type (FIG. 7A). […]

In experiment [2] the target is T2, wild-type PS1 γ-secretase (Homo sapiens, UniProt P49768).
T2 construct: total membrane
The experiment in a line: In vitro N1-Sb1 γ-secretase assay, membrane of N2a cells expressing wild-type PS1. It counts as biochemical, murine. The settings on record: wild-type PS1; read-out: IC50 of γ-secretase inhibition (N1-Sb1 cleavage). As for the experimental part: as §1, §2, §3, §4

For experiment [3], the target named is T3, γ-secretase (Homo sapiens, UniProt P49768).
T3 construct: endogenous in cells; host or cells: HEK293 cells transiently transfected with myc-tagged N1-ΔE (substrate only)
The experiment in a line: Cell-based Notch cleavage assay, immunostaining with SM320, HEK293 cells transfected with N1-ΔE. The settings on record: 1 μM inhibitor, 48 hours. On the procedure: HEK293 cells were seeded in a 4-well chamber slide (Lab-tek) and transfected with N1-ΔE as in the preceding paragraph, using Fugene 6 transfection reagents (Roche Applied Science, Mannheim, Germany). Transfected cells were then treated with either DMSO at a 1% final concentration or 1 μM Compound E.
After 48 hours of treatment, the cells were washed with PBS, fixed with cold methanol and permeabilized with 0.25% Tween-20. SM320 and anti-myc antibodies were added to detect NICD and full length N1-ΔE, respectively. Alexa Fluor-488 (Invitrogen, San Diego, Calif.) conjugated anti-rabbit and Alexa Fluor-594 (Invitrogen) conjugated anti-mouse antibodies were used as corresponding secondary antibodies. 4′,6-diamidino-2-phenylindole (DAPI) was used to stain cell nuclei. Finally, fluorescent images were captured with a Leica TCS Sp2 AOBS laser scanning confocal microscope (Memorial Sloan-Kettering Cancer Center Molecular Cytology Core Facility). Alternatively, REK 293 cells overexpressing N1-ΔE were treated with DMSO or Compound E, and were then collected through centrifugation and embedded in paraffin. The cell pellets were sliced and mounted on glass slides. […]
SM320 was further characterized using immunostaining analysis. […] Using confocal microscopy, it was shown that N1-ΔE protein, as detected by anti-myc antibody, is expressed in cells transfected with the construct (FIG. 6B, panel 2). […]

Experiment [4] deals with T4, E280A PS1 γ-secretase (Homo sapiens, UniProt P49768, E280A).
T4 construct: total membrane
Description: In vitro N1-Sb1 γ-secretase assay, membrane of N2a cells expressing E280A PS1. The experiment is classed as biochemical, murine. The settings on record: E280A PS1; read-out: IC50 of γ-secretase inhibition (N1-Sb1 cleavage). On the procedure: as §1, §2, §3, §4

Turning to `CC(C)C[C@H](NC(=O)[C@H](Cc1ccccc1)C[C@@H](O)[C@H](Cc1ccccc1)NC(=O)OC(C)(C)C)C(=O)N[C@@H](Cc1ccccc1)C(N)=O` [L458], the IC50 (in general, the concentration that gives 50% inhibition) was determined as 0.45 nM in experiment [1], 0.5 nM in experiment [2] and 0.46 nM in experiment [4]. The “detection of NICD by SM320 immunostaining” value in experiment [3] is recorded as “No spots of any color are observed”.

As to `CC(NC(=O)Cc1cc(F)cc(F)c1)C(=O)NC1N=C(c2ccccc2)c2ccccc2N(C)C1=O` (centres unmarked) [Compound E], the IC50 in experiment [1] turned out to be 0.76 nM; in experiment [2], 0.78 nM; in experiment [4], 0.71 nM. Besides, the “detection of NICD by SM320 immunostaining” value in experiment [3] is “not in cells treated with Compound E”.
